Some test systems named below: IGROV-1; DU-145; HL-60; CAKI-1; MOLT-4; OVCAR-8; ACHN; HT-29; HCT-15; COLO 205; M14; HOP-92; SW-620; CCRF-CEM; NCI-H23; UACC-257; OVCAR-5; SK-MEL-5; NCI/ADR-RES.
Assay in all cases: NCI tumour cell line growth inhibition, 48 h

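Each compound was tested at five concentrations against cells in 96-well plates for 48 hours. At the GI50, growth is halved.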 Activity calls are given as the source filed them. No stated cut-off is given here; in the data, active = GI50 up to about 1.1 µM and inactive = higher.

The text below walks through data of ChEMBL document CHEMBL1201862, “PubChem BioAssay data set” (2004).

`C=C1CC(Cn2ccc(=O)[nH]c2=O)(c2ccc(OC)cc2)OC1=O` (stereo unspecified): the GI50 was 15.7 µM (inactive) in the assay with IGROV-1; 17.4 µM (inactive) in the assay on DU-145; 2.35 µM (inactive) in the assay on HL-60; 6.34 µM (inactive) with CAKI-1; 2.5 µM (inactive) with MOLT-4; 20.1 µM (inactive) with OVCAR-8. For the same molecule, the GI50 in the assay with ACHN is 18.7 µM (inactive); in the assay on HT-29, 13.2 µM (inactive); with HCT-15, 14.8 µM; in the assay with COLO 205 it was 4.14 µM (inactive); in the assay on M14, 7.21 µM (inactive); with HOP-92, 2.34 µM (inactive). For the same molecule, the GI50 in the assay on SW-620 was 3.7 µM (inactive); with CCRF-CEM, 2.88 µM (inactive); with NCI-H23, 11.2 µM (inactive); with UACC-257, 14.8 µM (inactive); with OVCAR-5, 17.5 µM (inactive); in the assay with SK-MEL-5 it was 13.9 µM (inactive). Besides, the GI50 in the assay with NCI/ADR-RES was 16 µM (inactive).
In the case of `CC[C@]1(Cc2ccc(OC)c(OC)c2)CN(S(=O)(=O)c2ccc(C)cc2)C[C@@H]1OC(C)=O`, the GI50 is 85.5 µM (inactive) in the assay with IGROV-1; > 100 µM (inactive) with DU-145; > 100 µM (inactive) in the assay on HL-60; 95.7 µM (inactive) in the assay on CAKI-1; > 100 µM (inactive) in the assay on MOLT-4; 58.7 µM (inactive) in the assay with OVCAR-8. Moreover, the GI50 in the assay on ACHN is > 100 µM (inactive); with HT-29, 96.8 µM (inactive); with HCT-15, > 100 µM; with COLO 205, > 100 µM (inactive); in the assay with M14, > 100 µM (inactive); with HOP-92, 40.4 µM (inactive). Further, the GI50 in the assay with SW-620, in the assay with CCRF-CEM, in the assay on NCI-H23, in the assay with UACC-257, in the assay with OVCAR-5 and with SK-MEL-5 was > 100 µM (inactive) each time. The GI50 in the assay with NCI/ADR-RES was > 100 µM (inactive).
`O=c1oc2ccc3ccccc3c2cc1-c1nc2ccccc2o1`: the GI50 in the assay on IGROV-1 is 12.7 µM (inactive); in the assay with DU-145 it was 20.7 µM (inactive); in the assay with HL-60 it was 40.6 µM (inactive); in the assay on CAKI-1, 17.1 µM (inactive); with MOLT-4, 35.2 µM (inactive); with OVCAR-8, 23.2 µM (inactive). For the same molecule, the GI50 in the assay with ACHN was 13.9 µM (inactive); with HT-29 it was 20.7 µM (inactive); with HCT-15, 36.6 µM; in the assay with COLO 205, 53.5 µM (inactive); with M14 it was 33.2 µM (inactive); with HOP-92, 16.4 µM (inactive). For the same molecule, the GI50 was 21.8 µM (inactive) in the assay with SW-620; 37.7 µM (inactive) with CCRF-CEM; 27.4 µM (inactive) in the assay on NCI-H23; > 49.9 µM (inactive) with UACC-257; > 100 µM (inactive) with OVCAR-5; 25.9 µM (inactive) in the assay with SK-MEL-5. Further, the GI50 with NCI/ADR-RES is 20 µM (inactive).
In the case of `ClCc1nc2ccccc2[nH]1`, the GI50 in the assay with IGROV-1 was > 100 µM (inactive); in the assay on DU-145, > 100 µM (inactive); in the assay on HL-60, > 100 µM (inactive); in the assay on CAKI-1, > 100 µM (inactive); in the assay on MOLT-4, 54 µM (inactive); in the assay on OVCAR-8 it was > 100 µM (inactive). Moreover, the GI50 is 85.1 µM (inactive) with ACHN; > 100 µM (inactive) with HT-29; > 100 µM in the assay on HCT-15; > 100 µM (inactive) in the assay on COLO 205; > 100 µM (inactive) in the assay on M14; > 100 µM (inactive) in the assay with HOP-92. Besides, the GI50 with SW-620, in the assay on CCRF-CEM, with NCI-H23, in the assay with UACC-257, in the assay with OVCAR-5 and in the assay with SK-MEL-5 was > 100 µM (inactive) in each case. Moreover, the GI50 in the assay with NCI/ADR-RES was > 100 µM (inactive).
